Laboratory results: the supplement of paper PMC10307832

Legend:
Assay in all cases: relative viability (nuclei count vs DMSO), 5 days (fraction); higher = more cells survive
[1] = compound: Cc1cnc(Nc2ccc(OCCN3CCCC3)cc2)nc1Nc1cccc(S(=O)(=O)NC(C)(C)C)c1 [Fedratinib] + CC(=O)Nc1cccc(-n2c(=O)n(C3CC3)c(=O)c3c(Nc4ccc(I)cc4F)n(C)c(=O)c(C)c32)c1 [Trametinib] (partner 0.02 µM)
Summary of the method: (§1)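 Medians of duplicate plates are given as relative viability. That measure is the nuclei count in treated wells divided by the count in vehicle wells. Counts were taken on 4× images of lung cancer cell lines in 1536-well plates, 5 days after pin-tool dosing the day after seeding with one drug alone or a fixed anchor-drug dose plus five library-drug doses (not always all listed) in √10 steps.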

[2] = compound: Cc1cnc(Nc2ccc(OCCN3CCCC3)cc2)nc1Nc1cccc(S(=O)(=O)NC(C)(C)C)c1 [Fedratinib] + NC(=O)Nc1cc(-c2cccc(F)c2)sc1C(=O)N[C@H]1CCCNC1 [AZD7762] (partner 0.2 µM)
Summary of the method: as §1

[3] = compound: COC1=CC=C(C=C1)COC2=C(C=C(C=C2)CC3=CN=C(N=C3N)N)OC [GW-2580] + CS(=O)(=O)N1CCN(Cc2cc3nc(-c4cccc5[nH]ncc45)nc(N4CCOCC4)c3s2)CC1 [Pictilisib] (partner 1 µM)
Summary of the method: as §1

[4] = compound: COC1=CC=C(C=C1)COC2=C(C=C(C=C2)CC3=CN=C(N=C3N)N)OC [GW-2580] + O=C(CCCCCCC(=O)Nc1ccccc1)NO [Vorinostat] (partner 1 µM)
Summary of the method: as §1

[5] = compound: COC1=CC=C(C=C1)COC2=C(C=C(C=C2)CC3=CN=C(N=C3N)N)OC [GW-2580] + COc1cc2c(Oc3ccc(NC(=O)C4(C(=O)Nc5ccc(F)cc5)CC4)cc3F)ccnc2cc1OCCCN1CCOCC1 [Foretinib] (partner 0.25 µM)
Summary of the method: as §1

Cell Line | relative viability ([1]; first compound 0.1 µM) | relative viability ([1]; first compound 0.3162 µM) | relative viability ([1]; first compound 1 µM) | relative viability ([2]; first compound 0.1 µM) | relative viability ([2]; first compound 0.3162 µM) | relative viability ([2]; first compound 1 µM) | relative viability ([3]; first compound 0.08 µM) | relative viability ([3]; first compound 0.8 µM) | relative viability ([3]; first compound 2.53 µM) | relative viability ([3]; first compound 8 µM) | relative viability ([4]; first compound 0.08 µM) | relative viability ([4]; first compound 0.8 µM) | relative viability ([4]; first compound 2.53 µM) | relative viability ([4]; first compound 8 µM) | relative viability ([5]; first compound 0.08 µM) | relative viability ([5]; first compound 0.8 µM) | relative viability ([5]; first compound 2.53 µM) | relative viability ([5]; first compound 8 µM)
201T | 0.697 | 0.769 | 0.718 | 0.753 | 0.531 | 0.593 | 0.601 | 0.701 | 0.67 | 0.68 | 1.01 | 0.949 | 0.992 | 0.883 | 1.09 | 1.1 | 1.24 | 1.13
A549 |  |  |  |  |  |  | 0.575 | 0.491 | 0.486 | 0.303 |  |  |  |  | 1.01 | 0.577 | 1.06 | 0.902
A-427 | 0.633 | 0.649 | 0.627 | 0.573 | 0.671 | 0.556 | 0.73 | 0.661 | 0.678 | 0.655 | 0.534 | 0.97 | 0.806 | 0.848 | 1.1 | 1.14 | 0.892 | 1.01
ABC-1 |  |  |  | 0.741 | 0.877 | 0.792 | 0.761 | 0.564 | 0.571 | 0.679 | 0.972 | 1.17 | 1.06 | 0.98 | 1.09 | 1.16 | 0.931 | 0.86
BEN | 0.846 | 0.945 | 0.926 | 0.623 | 0.553 | 0.568 | 0.612 | 0.602 | 0.451 | 0.515 | 0.587 | 0.565 | 0.559 | 0.633 | 0.61 | 0.731 | 0.406 | 0.674
CAL-12T | 0.4 | 0.332 | 0.304 | 0.594 | 0.618 | 0.666 | 0.45 | 0.739 | 0.341 | 0.513 | 0.777 | 0.697 | 0.978 | 0.859 | 1.2 | 1.25 | 1.11 | 1.06
COR-L23 | 0.576 | 0.604 | 0.155 |  |  |  | 0.834 | 0.969 | 0.695 | 0.888 | 0.495 | 0.516 | 0.426 | 0.524 | 1.12 | 1.15 | 1.09 | 0.882
COR-L 105 | 0.39 | 0.442 | 0.422 |  |  |  | 0.36 | 0.404 | 0.353 | 0.375 | 0.833 | 0.926 | 0.561 | 0.697 | 1.09 | 1.19 | 1.05 | 0.993
Calu-6 |  |  |  |  |  |  | 0.99 | 1.08 | 0.908 | 1.05 |  |  |  |  | 0.866 | 0.898 | 0.915 | 0.858
ChaGo-K-1 | 0.765 | 0.841 | 0.873 | 0.921 | 0.829 | 0.81 | 0.735 | 1.15 | 0.526 | 0.655 | 0.743 | 0.726 | 0.768 | 0.794 | 0.994 | 0.965 | 0.924 | 0.881
EBC-1 |  |  |  |  |  |  | 0.309 | 0.374 | 0.323 | 0.296 |  |  |  |  | 0.0973 | 0.114 | 0.107 | 0.0908
